Read-outs that look alike come from different tables or passages of the source.
Key:
human IDO = human IDO (Homo sapiens, UniProt P14902); test: Cell based IDO/kynurenine assay in IDO-293-T-Rex cells; conditions: kynurenine production, 293T cells expressing human IDO, read-out: hIDO EC50
Summary of the method: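 293-T-REx cells stably carrying doxycycline-inducible human or murine IDO were incubated with inhibitors in induction medium for 16 h at 37° C. Medium was TCA-treated at 60° C and reacted with p-dimethylaminobenzaldehyde. Kynurenine was quantified by absorbance at 480 nm.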

IDO-293-T-Rex cells = system: IDO-293-T-Rex cells
Protocol: To measure the toxicity of each compound after 16 h incubation with cells, cell viability is measured via a WST-1 assay (Roche) according to instructions from the manufacturer. Briefly, after the incubation with each compound, medium is aspirated and replaced with […] of WST-1 reagent, and incubated 30 min at 37° C. Absorbance at 540 nm is correlated with the number of viable cells. Determination of IC50 (Kynurenine assay) or LD50 (WST-1 assay) is performed via non-linear regression analysis using GraphPad Prism software.
Viability was measure by the WST assay as described in one of the examples.

[1] = biological target: purified human IDO protein (Homo sapiens, UniProt P14902); test: Enzymatic IDO assay (kynurenine production, absorbance 480 nm); conditions: recombinant human IDO, enzymatic activity
purified human IDO protein, sequence (P14902 whole entry P110S/E119G): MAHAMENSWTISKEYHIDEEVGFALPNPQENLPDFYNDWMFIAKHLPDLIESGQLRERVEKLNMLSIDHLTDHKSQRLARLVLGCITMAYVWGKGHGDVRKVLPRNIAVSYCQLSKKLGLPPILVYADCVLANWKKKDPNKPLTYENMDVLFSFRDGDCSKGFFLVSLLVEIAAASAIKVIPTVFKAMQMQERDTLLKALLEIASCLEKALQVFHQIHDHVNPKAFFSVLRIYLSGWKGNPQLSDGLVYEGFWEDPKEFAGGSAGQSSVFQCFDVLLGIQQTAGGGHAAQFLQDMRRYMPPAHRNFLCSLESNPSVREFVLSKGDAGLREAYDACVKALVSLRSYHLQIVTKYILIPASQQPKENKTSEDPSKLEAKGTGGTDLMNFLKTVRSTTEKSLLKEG

murine IDO = biological target: T1, murine IDO (Mus musculus, UniProt P28776); test: Cell based IDO/kynurenine assay in 293-T-Rex cells expressing murine IDO; conditions: cells expressing murine IDO, read-out: mIDO EC50
T1 construct: expressed in transfected cells; host or cells: 293-T-REx cells (Invitrogen), doxycycline-inducible CMV-tet promoter
T1 sequence (P28776 whole entry): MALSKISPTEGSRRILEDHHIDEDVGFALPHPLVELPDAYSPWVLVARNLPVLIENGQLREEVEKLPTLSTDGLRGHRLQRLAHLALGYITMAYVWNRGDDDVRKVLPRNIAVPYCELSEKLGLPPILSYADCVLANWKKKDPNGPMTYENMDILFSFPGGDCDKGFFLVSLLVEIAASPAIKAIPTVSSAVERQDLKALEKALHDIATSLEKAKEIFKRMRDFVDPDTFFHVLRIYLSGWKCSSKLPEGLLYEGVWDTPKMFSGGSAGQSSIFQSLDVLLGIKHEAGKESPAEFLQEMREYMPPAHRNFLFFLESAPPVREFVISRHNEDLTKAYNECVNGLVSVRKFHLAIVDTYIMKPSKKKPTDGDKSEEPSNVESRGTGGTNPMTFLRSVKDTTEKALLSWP
Protocol: Transfected cells were selected in DBZ medium (DMEM, 10% FBS, 1× Penicillin+Streptomycin, 2 mM L-glutamine, 5 μg/mL blasticidin and 25 μg/ml Zeocin) at 37° C. with a 5% CO2 in air atmosphere. Individual clones were isolated by limiting dilution cloning from these populations.
The cells incubated in Neutral medium serve as negative control of the assay. The cells incubated in Induction medium and without inhibitor serve as the positive control of the assay. The incubation is carried out for 16 h at 37° C. in a cell culture incubator. 200 μL of medium are transferred to U-bottom polypropylene 96-well plates containing 25 μL of 30% TCA, incubated 30 minutes at 60° C. and centrifuged at 3400 g for 5 minutes. 150 μL of the clear supernatant is transferred to a polystyrene 96-well plate containing 50 μL of 4% (w/v) of p-dimethylaminobenzaldehyde in acetic acid, incubated for 10 min. Kynurenine concentration is determined by measuring the absorbance at 480 nm.

[2] = system: 293-T-Rex cells expressing murine IDO; test: Toxicity / cell viability (LD50) in the murine IDO cell based assay
[3] = Table 15, 50% cell viability loss, WST assay, human IDO cell based assay
[4] = Table 15, cell viability loss, murine IDO cell based assay

human IDO, sequence (P14902 whole entry): as the sequence (P14902 whole entry P110S/E119G) above, with S110P, G119E counted along it

Row | EC50 (human IDO; Table 15) | IC50 ([1]; hIDO IC50, Table 15) | EC50 (murine IDO; Table 15) | SMILES | also measured
1 | – | – | – | NOCc1cccc(F)c1 [compound 762, O-(3-fluorobenzyl)hydroxylamine] | EC50 (human IDO; Table 16): < 10 µM; hIDO LD50 (IDO-293-T-Rex cells; Table 16, 50% cell viability loss, WST assay, human IDO cell based assay): D (D>1000 μM); IC50 ([1]; hIDO IC50, Table 16): < 10 µM; EC50 (murine IDO; Table 16): < 10 µM; mIDO LD50 ([2]; Table 16, cell viability loss, murine IDO cell based assay): D (D>1000 μM)
2 | – | – | – | NOCc1ccccc1I [compound 1817, O-(2-iodobenzyl)hydroxylamine] | EC50 (human IDO; Table 16): < 10 µM; hIDO LD50 (IDO-293-T-Rex cells): D (key: A: <10 μM; B: 10-100 μM; C: 100-1000 μM; D>1000 μM); IC50 ([1]; hIDO IC50, Table 16): < 10 µM; EC50 (murine IDO; Table 16): 10 to 100 µM; mIDO LD50 [2]: D (key: A: <10 μM; B: 10-100 μM; C: 100-1000 μM; D>1000 μM)
3 | < 10 µM | < 10 µM | 100 to 1000 µM | COC(=O)CCC(ON)c1ccccc1 (centres unmarked) [compound 1880, methyl 4-(aminooxy)-4-phenylbutanoate] | –
4 | < 10 µM | < 10 µM | 10 to 100 µM | NOCc1cc(Cl)ccc1-c1ccc(C(F)(F)F)cc1 [compound 1917, O-((4-chloro-4′-(trifluoromethyl)biphenyl-2-yl)methyl)hydroxylamine] | –
5 | < 10 µM | < 10 µM | < 10 µM | COC(=O)C(ON)c1ccccc1 (centres unmarked) [compound 1886, methyl 2-(aminooxy)-2-phenylacetate] | –
6 | < 10 µM | < 10 µM | < 10 µM | NOCc1cccc(Nc2ccccc2)c1 [compound 1829, 3-(aminooxymethyl)-N-phenylaniline] | –
7 | – | – | – | NOCCc1cccc([N+](=O)[O-])c1 [compound 1752, O-(3-nitrophenethyl)hydroxylamine] | EC50 (human IDO; Table 16): < 10 µM; IC50 ([1]; hIDO IC50, Table 16): < 10 µM; EC50 (murine IDO; Table 16): < 10 µM
8 | < 10 µM | < 10 µM | 100 to 1000 µM | NOCc1ccccc1NCc1ccccc1 [compound 1662, 2-(aminooxymethyl)-N-benzylaniline] | –
9 | < 10 µM | 10 to 100 µM | 100 to 1000 µM | NOCc1cccc(-c2ccncc2)c1 [compound 1888, O-(3-(pyridin-4-yl)benzyl)hydroxylamine] | –
10 | – | – | – | NOCc1cccc(C(F)(F)F)c1 [compound 1775, O-(3-(trifluoromethyl)benzyl)hydroxylamine] | EC50 (human IDO; Table 16): < 10 µM; IC50 ([1]; hIDO IC50, Table 16): < 10 µM; EC50 (murine IDO; Table 16): < 10 µM
11 | < 10 µM | < 10 µM | 10 to 100 µM | NOCc1cc(Cl)cc(-c2ccc(Cl)cc2)c1 [compound 1893, O-((4′,5-dichlorobiphenyl-3-yl)methyl)hydroxylamine] | –
12 | – | – | – | C=CCC(ON)c1cccc([N+](=O)[O-])c1 (centres unmarked) [compound 1755, O-(1-(3-nitrophenyl)but-3-enyl)hydroxylamine] | EC50 (human IDO; Table 16): < 10 µM; IC50 ([1]; hIDO IC50, Table 16): < 10 µM; EC50 (murine IDO; Table 16): < 10 µM
13 | < 10 µM | < 10 µM | < 10 µM | NOCc1cc(F)cc(Cl)c1 [compound 1660, O-(3-chloro-5-fluorobenzyl)hydroxylamine] | –
14 | < 10 µM | 10 to 100 µM | < 10 µM | NOCc1ccccn1 [compound 1739, O-(pyridin-2-ylmethyl)hydroxylamine] | –
15 | < 10 µM | 10 to 100 µM | 10 to 100 µM | CNC(=O)CCC(ON)c1ccccc1 (centres unmarked) [compound 1898, 4-(aminooxy)-N-methyl-4-phenylbutanamide] | –
16 | < 10 µM | < 10 µM | 10 to 100 µM | NOC(c1ccccc1)C1CCCCC1 (centres unmarked) [compound 1920, O-(cyclohexyl(phenyl)methyl)hydroxylamine] | –
17 | < 10 µM | < 10 µM | 10 to 100 µM | NOCc1ccccc1Nc1ccccc1 [compound 1871, 2-(aminooxymethyl)-N-phenylaniline] | –

Row | EC50 (human IDO; Table 15) | IC50 ([1]; hIDO IC50, Table 15) | EC50 (murine IDO; Table 15) | SMILES | also measured
18 | < 10 µM | < 10 µM | 10 to 100 µM | NOCc1ccc2c(c1)OCO2 [compound 1744, O-(benzo[d][1,3]dioxol-5-ylmethyl)hydroxylamine] | –
19 | < 10 µM | 10 to 100 µM | < 10 µM | Cc1nc(-c2ccccc2)ncc1CON [compound 1740, O-((4-methyl-2-phenylpyrimidin-5-yl)methyl)hydroxylamine] | –
20 | < 10 µM | < 10 µM | 10 to 100 µM | NOC(Cc1ccccc1)c1ccccc1 (centres unmarked) [compound 1921, O-(1,2-diphenylethyl)hydroxylamine] | –
21 | < 10 µM | < 10 µM | 10 to 100 µM | NOCc1cc(Cl)ccc1-c1ccccc1 [compound 1916, O-((4-chlorobiphenyl-2-yl)methyl)hydroxylamine] | –
22 | < 10 µM | < 10 µM | < 10 µM | N#Cc1cccc(CON)c1 [compound 1873, 3-(aminooxymethyl)benzonitrile] | –
23 | < 10 µM | < 10 µM | < 10 µM | NOCC1CCc2ccccc2O1 (centres unmarked) [compound 1768, O-(chroman-2-ylmethyl)hydroxylamine] | –
24 | – | – | – | NOCc1ccc(F)c(Cl)c1 [compound 1673, O-(3-chloro-4-fluorobenzyl)hydroxylamine] | EC50 (human IDO; Table 16): < 10 µM; IC50 ([1]; hIDO IC50, Table 16): 100 to 1000 µM; EC50 (murine IDO; Table 16): > 1000 µM
25 | – | – | – | NOCc1ccccc1C(F)(F)F [compound 1677, O-(2-(trifluoromethyl)benzyl)hydroxylamine] | EC50 (human IDO; Table 16): < 10 µM; IC50 ([1]; hIDO IC50, Table 16): < 10 µM; EC50 (murine IDO; Table 16): 10 to 100 µM
26 | < 10 µM | 10 to 100 µM | 10 to 100 µM | Cc1ccc(-c2cccc(CON)c2)cc1 [compound 1881, O-((4′-methylbiphenyl-3-yl)methyl)hydroxylamine] | –
27 | < 10 µM | < 10 µM | 10 to 100 µM | NOCc1ccc(F)cc1Cl [compound 1676, O-(2-chloro-4-fluorobenzyl)hydroxylamine] | –
28 | < 10 µM | 10 to 100 µM | 100 to 1000 µM | NOCc1ccccc1-c1ccncc1 [compound 1889, O-(2-(pyridin-4-yl)benzyl)hydroxylamine] | –
29 | – | – | – | NOCc1ccccc1 [compound 1666, O-benzylhydroxylamine] | EC50 (human IDO; Table 16): < 10 µM; IC50 ([1]; hIDO IC50, Table 16): < 10 µM; EC50 (murine IDO; Table 16): < 10 µM
30 | – | – | – | NOC1CCCCO1 (centres unmarked) [compound 1669, O-(tetrahydro-2H-pyran-2-yl)hydroxylamine] | EC50 (human IDO; Table 16): < 10 µM; IC50 ([1]; hIDO IC50, Table 16): 10 to 100 µM; EC50 (murine IDO; Table 16): < 10 µM
31 | – | – | – | NOCc1ccccc1CON [compound 1822, O,O′-(1,2-phenylenebis(methylene))bis(hydroxylamine)] | EC50 (human IDO; Table 16): 10 to 100 µM; IC50 ([1]; hIDO IC50, Table 16): 10 to 100 µM; EC50 (murine IDO; Table 16): 10 to 100 µM
32 | < 10 µM | 10 to 100 µM | < 10 µM | NOCc1ccc2ncccc2c1 [compound 1741, O-(quinolin-6-ylmethyl)hydroxylamine] | –
33 | < 10 µM | < 10 µM | < 10 µM | COc1ccc(OC)c(CON)c1 [compound 1771, O-(2,5-dimethoxybenzyl)hydroxylamine] | –

Row | SMILES | EC50 (human IDO; Table 15) | IC50 ([1]; hIDO IC50, Table 15) | EC50 (murine IDO; Table 15) | also measured
34 | NOCc1cccnc1 [compound 1738, O-(pyridin-3-ylmethyl)hydroxylamine] | < 10 µM | 10 to 100 µM | 10 to 100 µM | hIDO LD50 (IDO-293-T-Rex cells; [3]): D (D>1000 μM); mIDO LD50 [2, 4]: D (D>1000 μM)
35 | NOCc1cc(Cl)cc(Cl)c1 [compound 1769, O-(3,5-dichlorobenzyl)hydroxylamine] | < 10 µM | < 10 µM | < 10 µM | hIDO LD50 (IDO-293-T-Rex cells): D (key: A: <10 μM; B: 10-100 μM; C: 100-1000 μM; D>1000 μM); mIDO LD50 [2]: D (key: A: <10 μM; B: 10-100 μM; C: 100-1000 μM; D>1000 μM)
36 | N#Cc1ccc(CON)cc1 [compound 1896, 4-(aminooxymethyl)benzonitrile] | < 10 µM | < 10 µM | 10 to 100 µM | hIDO LD50 (IDO-293-T-Rex cells; [3]): D (D>1000 μM); mIDO LD50 [2, 4]: D (D>1000 μM)
37 | NOCc1c[nH]c2ccccc12 [compound 1742, O-((1H-indol-3-yl)methyl)hydroxylamine] | < 10 µM | 10 to 100 µM | < 10 µM | hIDO LD50 (IDO-293-T-Rex cells; [3]): D (D>1000 μM); mIDO LD50 [2, 4]: D (D>1000 μM)
38 | NOCc1ccc2ccccc2c1 [compound 1736, O-(naphthalen-2-ylmethyl)hydroxylamine] | < 10 µM | < 10 µM | < 10 µM | hIDO LD50 (IDO-293-T-Rex cells; [3]): D (D>1000 μM); mIDO LD50 [2, 4]: D (D>1000 μM)

— patent US20130289083A1, “IDO Inhibitors” (priority 2007, published 2013)
